One molecule from patent US20260210856A1, “CONJUGATED OLIGOELECTROLYTES WITH BORON-DIPYRROMETHENE CORES AND METHODS THEREOF” (National University of Singapore, priority 2022, published 2026) can be followed below.

A short description of data set [1]: Photophysical properties in PBS and in SUVs (POPC:POPG 85:15). The format is physicochemical. The source says:
The photophysical properties of the COE-BY series were studied in phosphate-buffered saline (PBS) and within model lipid bilayers. Small unilamellar vesicles (SUVs) composed of 1-palmitoyl-2-oleoyl-glycero-3-phosphocholine (POPC) and 1-palmitoyl-2-oleoyl-sn-glycero-3-phospho-(1′-rac-glycerol) sodium (POPG) (85:15, mol/mol) were used to simulate the lipid environment in cell membranes. The absorption spectra in PBS for all compounds feature a main peak at ~550 nm, reflecting the presence of the BODIPY subunit (FIG. 9A). One also observes a 5-10 nm red-shift of lowest energy absorption peak with increasing electron-withdrawing strength of the phenyl substituents.
Upon inserting into lipid bilayers, the fluorescence intensity increases over 27-fold for COE-BYPhMe, 30-fold for COE-BYPhOC4, 35-fold for COE-BYPhCN and 40-fold for COE-BYPhNO, relative to the values measured in PBS (FIG. 1c and FIG. S5). The increase in emission intensity reflects a transition to a more rigid and hydrophobic environment. Quantum yields increase to 32% for COE-BYPhMe, 60% for COE-BYPhOC4, 13% for COE-BYPhCN, and 10% for COE-BYPhNO in SUVs from 1% for COE-BYPhMe, 3% for COE-BYPhOC4, and 0.5% for COE-BYPhCN in PBS. The QY of COE-BYPhNO in PBS cannot be accurately determined by using a conventional fluorometer due to its weak fluorescence. The maximum emission wavelengths are redshifted from 587/589 nm (COE-BYPhMe/OC4) to 605/611 nm (COE-BYPhCN/NO) as a result of the decreased HOMO-LUMO energy gaps. […] Furthermore, the fluorescence spectra of COE-BYs intercalated within SUVs show a narrow band at wavelengths between 587 nm and 611 nm, with a full width half maximum (FWHM) linewidth of 52-68 nm (Table 1).

A short description of data set [2]: Fluorescence imaging of stained GUVs. The note with it: POPC GUV, normal light. It counts as physicochemical. The source says: Giant unilamellar vesicles (GUVs) composed of 1-palmitoyl-2-oleoyl-glycero-3-phosphocholine (POPC) were chosen as the model membrane system for the initial studies because of their ideal size (diameter>1 μm) for imaging via optical microscopy. […] COE-BY series are thus embedded within the bilayer as membrane-spanning probes, a geometric consideration relevant to measuring membrane tension across the whole lipid bilayer, instead of a single leaflet.

The test system of the next data set is HeLa cells. As to the kind of experiment: Brightness of stained HeLa cells by flow cytometry. The format is cell-based. The note with it: FIG. 11. An excerpt:
To evaluate their potential use as fluorescent probes for intracellular imaging, we first analyzed the brightness of each COE-BY molecule when used to stain HeLa cells using flow cytometry. As flow cytometry reports the fluorescence intensity per cell, this analysis would enable simultaneous evaluation of the cellular uptake and brightness. […] Based on these parameters, COE-BYPhOC4 was chosen for further in vitro imaging studies.
For orientation: A flow cytometer gives signals particle by particle.

In another data set the test system is MDCK cells. Put plainly: Confocal microscopy of stained cells. It counts as cell-based. Particulars: 1 μM, 10 minutes. The source says: Our next objective was to study the cellular distribution of COE-BYPhOC4 series at different time points by conventional confocal microscopy.
Data set [3] can be described thus: Two-photon absorption cross section. It counts as physicochemical. The note with it: intercalated into SUVs. An excerpt: Dynamic biological processes in live cells often take place at a rapid time scale, necessitating rapid image acquisition. For 2P-FLIM applications, this is especially relevant since a significant photon count is required to ensure accurate decay statistics and lifetime values. Two-photon imaging provides access to the NIR-II window for excitation (1000-1700 nm), minimizing photodamage and eliminating out of focus noise. As such, dye brightness plays a key role in enabling high-quality imaging. We thus evaluated their two-photon absorption cross-section of the COE-BY series. […] These properties will become relevant when determining the utility of COE-BYPhOC4 to image the endocytosis pathway and different response of living cells.

A short description of data set [4]: FLIM of stained GUVs with varying compositions. The note with it: 1 μM. It counts as physicochemical. An excerpt:
FLIM is a time-resolved method used to obtain information on the emission decay of a fluorophore in different cellular environments. Being independent of parameters such as local dye concentration, absorption profile, and excitation intensity, FLIM is sensitive to changes in the fluorophore itself relative to intensity-based measurements. Accordingly, we first used GUV model systems with a well-defined composition to measure the lifetime of the probe in environments of known lipid packing. For this purpose, use used compositions of, in order of increased membrane tension, DOPC, DOPC with cholesterol (Chol), sphyngomyelin (SM) and SM with Chol. This series of GUVs allows us to examine to what extent τw of intercalated COE-BYPhOC4 is responsive to different levels of membrane tension.
GUVs were thus first stained with 1 μM COE-BYPhOC4 and were imaged via conventional FLIM. […] All the lifetimes measured are predominantly described by a mono-exponential fit. […]

Molecules are shown by their SMILES. Some results are limits rather than exact numbers.

`CCCCOc1ccc(C2=C3C(C)=C(c4ccc(/C=C/c5cc(OCCCCCC[N+](C)(C)C)c(OCCCCCC[N+](C)(C)C)c(OCCCCCC[N+](C)(C)C)c5)cc4)C(C)=[N+]3[B-](F)(F)n3c(C)c(-c4ccc(/C=C/c5cc(OCCCCCC[N+](C)(C)C)c(OCCCCCC[N+](C)(C)C)c(OCCCCCC[N+](C)(C)C)c5)cc4)c(C)c32)cc1.[I-].[I-].[I-].[I-].[I-].[I-]` [COE-BYPhOC4]: the FWHM in data set [1] (fluorescence spectra, intercalated within SUVs) is 56 nm. In addition, in data set [1] (in PBS), the “ΦF in PBS” value came to 3%, the λabs is 540 nm and the “λem in PBS” value came to 602 nm. In data set [1] (in SUVs), the “ΦF in SUVs” value was found to be 60% and the “λem in SUVs” value is 589 nm. The “fluorescence intensity increase upon inserting into lipid bilayers” value in data set [1] (relative to the values measured in PBS) is greater than 30 fold. For the same molecule, the “fluorescence of stained GUV” value in data set [2] is reported as “strong uniform fluorescence”. For the same molecule, the “brightness of stained cells” value in the data set on HeLa cells is on record as “highest brightness”. The staining pattern result in the data set on MDCK cells is listed as “strong fluorescence signals were observed on the plasma membranes”. The “two photon absorption cross section area” value in data set [3] stood at 486 GM. In data set [4] (DOPC GUVs), this molecule came in with a τw of 1.6±0.2 ns. Also, the τw in data set [4] (SM/Chol vesicles) was found to be 2.8±0.3 ns.
